Data reported in US6518243B1, “Desleucyl glycopeptide antibiotics and methods of making same” (Trustees of Princeton University, priority 1999, dated 2003).

Legend:
[1] = system: S. aureus (ATCC 29213); test: Zone of inhibition screen, 96 well agar array format; type: cell-based; design: scale not given here
Description: (§1) The antibacterial activity of each of the compounds against the bacterial strains E. faceium (ATCC 49624), S. epidermidis (ATCC 12228), S. aureus (ATCC 29213), E. faecalis (CL 4877) and E. faecalis (ATCC 292121) was tested. Each of the compounds was screened in a 96 will agar array format.

[2] = system: E. faecalis (CL 4877); test: as above; type: cell-based; design: scale not given here; settings: zone of inhibition relative to 1 mg/ml p-chlorobiphenylvancomycin
Description: as §1

[3] = zone of inhibition relative to 1 mg/ml stock solution of p-chlorobiphenylvancomycin
[4] = zone of inhibition relative to 1 mg/ml p-chlorobiphenylvancomycin

Compound	zone score, S. aureus ATCC 29213 [1, 3]	zone score, E. faecalis CL 4877 [2]	other results
CC1OC(OC2C(Oc3c4cc5cc3Oc3ccc(cc3Cl)C(O)C(NC(=O)C3OC(O)C(O)C3O)C(=O)NC(CC(N)=O)C(=O)NC5C(=O)NC3C(=O)NC(C(=O)NC(C(=O)O)c5cc(O)cc(O)c5-c5cc3ccc5O)C(O)c3ccc(c(Cl)c3)O4)OC(CO)C(O)C2O)CC(C)(NCc2ccc(-c3ccc(Cl)cc3)cc2)C1O (mixture of isomers) [Compound 128]	2		
COC(=O)C1=C(C)NC(=O)C1CC(=O)NC1C(=O)NC(CC(N)=O)C(=O)NC2C(=O)NC3C(=O)NC(C(=O)NC(C(=O)O)c4cc(O)cc(O)c4-c4cc3ccc4O)C(O)c3ccc(c(Cl)c3)Oc3cc2cc(c3OC2OC(CO)C(O)C(O)C2OC2CC(C)(NCc3ccc(-c4ccc(Cl)cc4)cc3)C(O)C(C)O2)Oc2ccc(cc2Cl)C1O (mixture of isomers) [Compound 299]			zone score, S. aureus ATCC 29213 [1, 4]: 2
C[C@H]1O[C@H](O[C@H]2[C@H](Oc3c4cc5cc3Oc3ccc(cc3Cl)[C@@H](O)[C@@H](NC(=O)[C@@H](N)Cc3ccc(OC(C)(C)C)cc3)C(=O)N[C@@H](CC(N)=O)C(=O)N[C@H]5C(=O)N[C@H]3C(=O)N[C@H](C(=O)N[C@@H](C(=O)O)c5cc(O)cc(O)c5-c5cc3ccc5O)[C@H](O)c3ccc(c(Cl)c3)O4)O[C@H](CO)[C@@H](O)[C@@H]2O)C[C@@](C)(NCc2ccc(-c3ccc(Cl)cc3)cc2)[C@H]1O [Compound 19]	2		
CC1OC(OC2C(Oc3c4cc5cc3Oc3ccc(cc3Cl)C(O)C3NC(=O)C(NC(=O)C5NC(=O)C(CC(N)=O)NC(=O)C(NC(=O)c5[nH]c(=O)[nH]c(=O)c5N)C(O)c5ccc(c(Cl)c5)O4)c4ccc(O)c(c4)-c4c(O)cc(O)cc4C(C(=O)O)NC3=O)OC(CO)C(O)C2O)CC(C)(NCc2ccc(-c3ccc(Cl)cc3)cc2)C1O (stereo not shown) [Compound 109]	2		
CC(=O)NC(C)C(=O)NC1C(=O)NC(CC(N)=O)C(=O)NC2C(=O)NC3C(=O)NC(C(=O)NC(C(=O)O)c4cc(O)cc(O)c4-c4cc3ccc4O)C(O)c3ccc(c(Cl)c3)Oc3cc2cc(c3OC2OC(CO)C(O)C(O)C2OC2CC(C)(NCc3ccc(-c4ccc(Cl)cc4)cc3)C(O)C(C)O2)Oc2ccc(cc2Cl)C1O (stereo not shown) [Compound 112]	2		
CC(=O)NCCCCC(NC(C)=O)C(=O)NC1C(=O)NC(CC(N)=O)C(=O)NC2C(=O)NC3C(=O)NC(C(=O)NC(C(=O)O)c4cc(O)cc(O)c4-c4cc3ccc4O)C(O)c3ccc(c(Cl)c3)Oc3cc2cc(c3OC2OC(CO)C(O)C(O)C2OC2CC(C)(NCc3ccc(-c4ccc(Cl)cc4)cc3)C(O)C(C)O2)Oc2ccc(cc2Cl)C1O (stereo not shown) [Compound 123]	2		
CC(=O)NC(CC[S+](C)[O-])C(=O)NC1C(=O)NC(CC(N)=O)C(=O)NC2C(=O)NC3C(=O)NC(C(=O)NC(C(=O)O)c4cc(O)cc(O)c4-c4cc3ccc4O)C(O)c3ccc(c(Cl)c3)Oc3cc2cc(c3OC2OC(CO)C(O)C(O)C2OC2CC(C)(NCc3ccc(-c4ccc(Cl)cc4)cc3)C(O)C(C)O2)Oc2ccc(cc2Cl)C1O (stereo not shown) [Compound 124]	2		
CC1OC(OC2C(Oc3c4cc5cc3Oc3ccc(cc3Cl)C(O)C3NC(=O)C(NC(=O)C5NC(=O)C(CC(N)=O)NC(=O)C(NC(=O)C(CCS(C)(=O)=O)NC(=O)OC(C)(C)C)C(O)c5ccc(c(Cl)c5)O4)c4ccc(O)c(c4)-c4c(O)cc(O)cc4C(C(=O)O)NC3=O)OC(CO)C(O)C2O)CC(C)(NCc2ccc(-c3ccc(Cl)cc3)cc2)C1O (stereo not shown) [Compound 143]	2		
CC1OC(OC2C(Oc3c4cc5cc3Oc3ccc(cc3Cl)[C@@H](O)[C@@H](NC(=O)CC3NC(=O)NC3=O)C(=O)N[C@@H](CC(N)=O)C(=O)N[C@H]5C(=O)NC3C(=O)N[C@H](C(=O)N[C@@H](C(=O)O)c5cc(O)cc(O)c5-c5cc3ccc5O)[C@H](O)c3ccc(c(Cl)c3)O4)OC(CO)C(O)C2O)CC(C)(NCc2ccc(-c3ccc(Cl)cc3)cc2)C1O (stereo partly shown) [Compound 163]	2		
CC1OC(OC2C(Oc3c4cc5cc3Oc3ccc(cc3Cl)C(O)C(NC(=O)C(C)(C)NC(N)=O)C(=O)NC(CC(N)=O)C(=O)NC5C(=O)NC3C(=O)NC(C(=O)NC(C(=O)O)c5cc(O)cc(O)c5-c5cc3ccc5O)C(O)c3ccc(c(Cl)c3)O4)OC(CO)C(O)C2O)CC(C)(NCc2ccc(-c3ccc(Cl)cc3)cc2)C1O (stereo not shown) [Compound 190]	2		
CSCCC(NC=O)C(=O)NC1C(=O)NC(CC(N)=O)C(=O)NC2C(=O)NC3C(=O)NC(C(=O)NC(C(=O)O)c4cc(O)cc(O)c4-c4cc3ccc4O)C(O)c3ccc(c(Cl)c3)Oc3cc2cc(c3OC2OC(CO)C(O)C(O)C2OC2CC(C)(NCc3ccc(-c4ccc(Cl)cc4)cc3)C(O)C(C)O2)Oc2ccc(cc2Cl)C1O (stereo not shown) [Compound 196]	2		
CC1OC(OC2C(Oc3c4cc5cc3Oc3ccc(cc3Cl)C(O)C3NC(=O)C(NC(=O)C5NC(=O)C(CC(N)=O)NC(=O)C(NC(=O)CCC(=O)NN(C)C)C(O)c5ccc(c(Cl)c5)O4)c4ccc(O)c(c4)-c4c(O)cc(O)cc4C(C(=O)O)NC3=O)OC(CO)C(O)C2O)CC(C)(NCc2ccc(-c3ccc(Cl)cc3)cc2)C1O (stereo not shown) [Compound 203]	2		
CC(C)=C(N)C(=O)NC1C(=O)NC(CC(N)=O)C(=O)NC2C(=O)NC3C(=O)NC(C(=O)NC(C(=O)O)c4cc(O)cc(O)c4-c4cc3ccc4O)C(O)c3ccc(c(Cl)c3)Oc3cc2cc(c3OC2OC(CO)C(O)C(O)C2OC2CC(C)(NCc3ccc(-c4ccc(Cl)cc4)cc3)C(O)C(C)O2)Oc2ccc(cc2Cl)C1O (stereo not shown) [Compound 216]			zone score, S. aureus ATCC 29213 [1, 4]: 2
CC1OC(OC2C(Oc3c4cc5cc3Oc3ccc(cc3Cl)C(O)C(NC(=O)C3(N)CC3)C(=O)NC(CC(N)=O)C(=O)NC5C(=O)NC3C(=O)NC(C(=O)NC(C(=O)O)c5cc(O)cc(O)c5-c5cc3ccc5O)C(O)c3ccc(c(Cl)c3)O4)OC(CO)C(O)C2O)CC(C)(NCc2ccc(-c3ccc(Cl)cc3)cc2)C1O (stereo not shown) [Compound 218]			zone score, S. aureus ATCC 29213 [1, 4]: 2
CCSCC(=O)NC1C(=O)NC(CC(N)=O)C(=O)NC2C(=O)NC3C(=O)NC(C(=O)NC(C(=O)O)c4cc(O)cc(O)c4-c4cc3ccc4O)C(O)c3ccc(c(Cl)c3)Oc3cc2cc(c3OC2OC(CO)C(O)C(O)C2OC2CC(C)(NCc3ccc(-c4ccc(Cl)cc4)cc3)C(O)C(C)O2)Oc2ccc(cc2Cl)C1O (stereo not shown) [Compound 225]		2	
CC1OC(OC2C(Oc3c4cc5cc3Oc3ccc(cc3Cl)C(O)C3NC(=O)C(NC(=O)C5NC(=O)C(CC(N)=O)NC(=O)C(NC(=O)C(=O)c5ccco5)C(O)c5ccc(c(Cl)c5)O4)c4ccc(O)c(c4)-c4c(O)cc(O)cc4C(C(=O)O)NC3=O)OC(CO)C(O)C2O)CC(C)(NCc2ccc(-c3ccc(Cl)cc3)cc2)C1O (stereo not shown) [Compound 239]			zone score, S. aureus ATCC 29213 [1, 4]: 2
CC1OC(OC2C(Oc3c4cc5cc3Oc3ccc(cc3Cl)C(O)C3NC(=O)C(NC(=O)C5NC(=O)C(CC(N)=O)NC(=O)C(NC(=O)c5cccnc5O)C(O)c5ccc(c(Cl)c5)O4)c4ccc(O)c(c4)-c4c(O)cc(O)cc4C(C(=O)O)NC3=O)OC(CO)C(O)C2O)CC(C)(NCc2ccc(-c3ccc(Cl)cc3)cc2)C1O (stereo not shown) [Compound 241]		2	
CCC(=O)C(=O)NC1C(=O)NC(CC(N)=O)C(=O)NC2C(=O)NC3C(=O)NC(C(=O)NC(C(=O)O)c4cc(O)cc(O)c4-c4cc3ccc4O)C(O)c3ccc(c(Cl)c3)Oc3cc2cc(c3OC2OC(CO)C(O)C(O)C2OC2CC(C)(NCc3ccc(-c4ccc(Cl)cc4)cc3)C(O)C(C)O2)Oc2ccc(cc2Cl)C1O (stereo not shown) [Compound 242]		2	
CC1OC(OC2C(Oc3c4cc5cc3Oc3ccc(cc3Cl)C(O)C3NC(=O)C(NC(=O)C5NC(=O)C(CC(N)=O)NC(=O)C(NC(=O)CC(F)(F)F)C(O)c5ccc(c(Cl)c5)O4)c4ccc(O)c(c4)-c4c(O)cc(O)cc4C(C(=O)O)NC3=O)OC(CO)C(O)C2O)CC(C)(NCc2ccc(-c3ccc(Cl)cc3)cc2)C1O (stereo not shown) [Compound 249]		2	
C[C@H]1O[C@H](O[C@H]2[C@H](Oc3c4cc5cc3Oc3ccc(cc3Cl)[C@@H](O)[C@@H](NC(=O)/C=C/c3ccc(Cl)c(Cl)c3)C(=O)N[C@@H](CC(N)=O)C(=O)N[C@H]5C(=O)N[C@H]3C(=O)N[C@H](C(=O)N[C@@H](C(=O)O)c5cc(O)cc(O)c5-c5cc3ccc5O)[C@H](O)c3ccc(c(Cl)c3)O4)O[C@H](CO)[C@@H](O)[C@@H]2O)C[C@@](C)(NCc2ccc(-c3ccc(Cl)cc3)cc2)[C@H]1O [Compound 251]		2	
CC1OC(OC2C(Oc3c4cc5cc3Oc3ccc(cc3Cl)C(O)C3NC(=O)C(NC(=O)C5NC(=O)C(CC(N)=O)NC(=O)C(NC(=O)c5ccc(N)cc5)C(O)c5ccc(c(Cl)c5)O4)c4ccc(O)c(c4)-c4c(O)cc(O)cc4C(C(=O)O)NC3=O)OC(CO)C(O)C2O)CC(C)(NCc2ccc(-c3ccc(Cl)cc3)cc2)C1O (stereo not shown) [Compound 268]		2	
CC1OC(OC2C(Oc3c4cc5cc3Oc3ccc(cc3Cl)C(O)C3NC(=O)C(NC(=O)C5NC(=O)C(CC(N)=O)NC(=O)C(NC(=O)c5cccnc5)C(O)c5ccc(c(Cl)c5)O4)c4ccc(O)c(c4)-c4c(O)cc(O)cc4C(C(=O)O)NC3=O)OC(CO)C(O)C2O)CC(C)(NCc2ccc(-c3ccc(Cl)cc3)cc2)C1O (stereo not shown) [Compound 307]		2	
CC1OC(OC2C(Oc3c4cc5cc3Oc3ccc(cc3Cl)C(O)C(NC(=O)C(F)(F)C(F)(F)C(F)(F)C(F)(F)F)C(=O)NC(CC(N)=O)C(=O)NC5C(=O)NC3C(=O)NC(C(=O)NC(C(=O)O)c5cc(O)cc(O)c5-c5cc3ccc5O)C(O)c3ccc(c(Cl)c3)O4)OC(CO)C(O)C2O)CC(C)(NCc2ccc(-c3ccc(Cl)cc3)cc2)C1O (stereo not shown) [Compound 311]			zone score, S. aureus ATCC 29213 [1, 4]: 2
CC1OC(OC2C(Oc3c4cc5cc3Oc3ccc(cc3Cl)C(O)C3NC(=O)C(NC(=O)C5NC(=O)C(CC(N)=O)NC(=O)C(NC(=O)c5ccccc5O)C(O)c5ccc(c(Cl)c5)O4)c4ccc(O)c(c4)-c4c(O)cc(O)cc4C(C(=O)O)NC3=O)OC(CO)C(O)C2O)CC(C)(NCc2ccc(-c3ccc(Cl)cc3)cc2)C1O (stereo not shown) [Compound 315]		2	
CC1OC(OC2C(Oc3c4cc5cc3Oc3ccc(cc3Cl)C(O)C3NC(=O)C(NC(=O)C5NC(=O)C(CC(N)=O)NC(=O)C(NC(=O)C5CCOC5)C(O)c5ccc(c(Cl)c5)O4)c4ccc(O)c(c4)-c4c(O)cc(O)cc4C(C(=O)O)NC3=O)OC(CO)C(O)C2O)CC(C)(NCc2ccc(-c3ccc(Cl)cc3)cc2)C1O (stereo not shown) [Compound 317]		2	
